One test has as its system serotonin-2 receptor. The experiment in a line: Anti-serotonin (5-HT) action: contraction of isolated superior mesenteric artery induced by 10^−5 M 5-HT. The following applies: contraction by 10^−5 M 5-HT taken as 100%, guinea pig superior mesenteric artery. How it is done:
(1) Anti-Serotonin (5-HT) Action
A preparation cut in a helical form was suspended under resting tension of 0.3 g in a Magnus cylinder filled with the Tyrode solution which had been aerated with a gas mixture of 95% O2 and 5% CO2 and maintained at 37° C. Using an isometric transducer (“UL-10”, manufactured by SHINKOH K.K.) and a pressure preamplifier (“DSA-605A”, manufactured by SHINKOH K.K.), variations in tension were measured. The isometric tensions were recorded on a pen-writing recorder (“VP-6537A”, manufactured by NATIONAL K.K.). Taking the contraction induced by 10^−5 M serotonin (5-HT) as 100%, the percent contractions by 10^−5 M 5-HT in the presence of each test drug at 10^−8 M, 10^−7 M and 10^−6 M were determined as anti-5-HT action.

A further test concerns α1 receptors. The test can be described thus: Anti-α1 action: tonic contraction of isolated thoracic aorta induced by 10^−5 M norepinephrine. The settings on record: tonic contraction by 10^−5 M norepinephrine taken as 100%, guinea pig thoracic aorta. On the procedure: The thoracic aorta of each Hartley male guinea pig (body weight: 300-500 g) was excised. A preparation cut in a helical form was suspended under 1 g load in a Magnus cylinder filled with the Tyrode solution which had been aerated with a gas mixture of 95% O2 and 5% CO2 and maintained at 37° C. Using an isometric transducer (“TB-612J”, manufactured by Nihon Kohden Corporation) and a pressure preamplifier (“AP-620G”, manufactured by Nihon Kohden Corporation), variations in tension were measured. The isometric tensions were recorded on a thermal pen-writing recorder (“WT-647G”, manufactured by Nihon Kohden Corporation). Taking the tonic contraction induced by 10^−5 M norepinephrine (NE) as 100%, the percent contractions upon addition of each test drug at 10^−8 M and 10^−7 M were determined as α1 action.

The text below walks through data of US6713634B2, “Pyrroloazepine derivatives” (Daiichi Suntory Pharma Co., Ltd., priority 1995, dated 2004).

Each structure is given as a SMILES string.

Take `Cn1ccc2c1C(=O)CCN(CCCN1CCC(c3noc4cc(F)ccc34)CC1)C2=O` [Compound No. 50, 5-[3-[4-(6-fluoro-1,2-benzisoxazol-3-yl)piperidino]propyl]-1-methyl-1,4,5,6,7,8-hexahydropyrrolo[3,2-c]azepine-4,8-dione]: the “Anti 5-HT action (% of Control)” value is on record as 25.1 % of Control in the test on serotonin-2 receptor (test drug 10^−7 M) and 67.5 % of Control in the test with serotonin-2 receptor (test drug 10^−8 M). The figures for the “Anti α1 action (% of Control)” value in the test on α1 receptors (test drug 10^−7 M) and in the test with α1 receptors (test drug 10^−8 M) were 34.2 % of Control and 67.1 % of Control, respectively.

Consider `Cn1ccc2c1C1(CCN(CCCN3CCN(c4ccc(F)cc4)CC3)C2=O)SCCS1` [Compound No. 52, 5-[3-[4-(4-fluorophenyl)piperazin-1-yl]propyl]-1-methyl-1,4,5,6,7,8-hexahydropyrrolo-[3,2-c]azepin-4-one-8-spiro-2′-(1′,3′-dithiolane)], for which the “Anti 5-HT action (% of Control)” value with serotonin-2 receptor (test drug 10^−7 M) was 20.9 % of Control; in the test with serotonin-2 receptor (test drug 10^−8 M) it was 75.5 % of Control. Further, the “Anti α1 action (% of Control)” value with α1 receptors (test drug 10^−7 M) is recorded as 75.8 % of Control; in the test on α1 receptors (test drug 10^−8 M), 96.8 % of Control.

As for `Cn1ccc2c1C(=NO)CCN(CCCN1CCN(c3ccc(F)cc3)CC1)C2=O` [Compound No. 53, 5-[3-[4-(4-fluorophenyl)piperazin-1-yl]propyl]-8-hydroxyimino-1-methyl-1,4,5,6,7,8-hexahydropyrrolo[3,2-c]azepin-4-one], the results for the “Anti 5-HT action (% of Control)” value in the test on serotonin-2 receptor (test drug 10^−6 M) and in the test with serotonin-2 receptor (test drug 10^−7 M) were 48.2 % of Control and 87.1 % of Control, respectively. Further, the “Anti α1 action (% of Control)” value is recorded as 60.1 % of Control in the test on α1 receptors (test drug 10^−7 M) and 86.1 % of Control in the test on α1 receptors (test drug 10^−8 M).

As for `Cn1cc2c(c1)/C(=N\O)CCN(CCCN1CCN(c3ccc(F)cc3)CC1)C2=O` [Compound No. 55, 5-[3-[4-(4-fluorophenyl)piperazin-1-yl]propyl]-8-[(Z)-hydroxyimino]-2-methyl-2,4,5,6,7,8-hexahydropyrrolo[3,4-c]azepin-4-one], the “Anti 5-HT action (% of Control)” value in the test on serotonin-2 receptor (test drug 10^−6 M) is given as 11.0 % of Control; in the test with serotonin-2 receptor (test drug 10^−7 M), 59.5 % of Control. The “Anti α1 action (% of Control)” value in the test on α1 receptors (test drug 10^−7 M) is reported as 73.5 % of Control; in the test with α1 receptors (test drug 10^−8 M), 97.6 % of Control.

With `Cn1ccc2c1C(O)CCN(CCN1CCN(c3ccc(F)cc3)CC1)C2=O` (stereo not drawn) [Compound No. 56, 5-[2-[4-(4-fluorophenyl)piperazin-1-yl]ethyl]-8-hydroxy-1-methyl-1,4,5,6,7,8-hexahydropyrrolo[3,2-c]azepin-4-one], the “Anti 5-HT action (% of Control)” value with serotonin-2 receptor (test drug 10^−6 M) is recorded as 47.9 % of Control; in the test with serotonin-2 receptor (test drug 10^−7 M) it was 90.2 % of Control. The entries for the “Anti α1 action (% of Control)” value in the test with α1 receptors (test drug 10^−7 M) and in the test with α1 receptors (test drug 10^−8 M) were 71.4 % of Control and 96.7 % of Control, respectively.

`Cn1ccc2c1C(O)CCN(CCCN1CCN(c3ccc(F)cc3)CC1)C2=O` (stereo not drawn) [Compound No. 57, 5-[3-[4-(4-fluorophenyl)piperazin-1-yl]propyl]-8-hydroxy-1-methyl-1,4,5,6,7,8-hexahydropyrrolo[3,2-c]azepin-4-one]: the entries for the “Anti 5-HT action (% of Control)” value in the test on serotonin-2 receptor (test drug 10^−6 M), in the test on serotonin-2 receptor (test drug 10^−7 M) and with serotonin-2 receptor (test drug 10^−8 M) were 7.5 % of Control, 12.0 % of Control and 54.6 % of Control, respectively. Besides, the entries for the “Anti α1 action (% of Control)” value in the test with α1 receptors (test drug 10^−7 M) and in the test on α1 receptors (test drug 10^−8 M) were 91.4 % of Control and 100 % of Control, respectively.

`Cc1cn(C)c2c1C(=O)N(CCCN1CCN(c3ccc(F)cc3)CC1)CCC2O` (stereo not drawn) [Compound No. 59, 5-[3-[4-(4-fluorophenyl)piperazin-1-yl]propyl]-8-hydroxy-1,3-dimethyl-1,4,5,6,7,8-hexahydropyrrolo[3,2-c]azepin-4-one]: the “Anti 5-HT action (% of Control)” value in the test with serotonin-2 receptor (test drug 10^−7 M) is given as 12.5 % of Control; in the test with serotonin-2 receptor (test drug 10^−8 M) it was 48.5 % of Control. Moreover, the “Anti α1 action (% of Control)” value with α1 receptors (test drug 10^−7 M) is on record as 47.3 % of Control; in the test with α1 receptors (test drug 10^−8 M), 81.6 % of Control.

In the case of `O=C1c2ccn(-c3ccccc3)c2C(O)CCN1CCCN1CCN(c2ccc(F)cc2)CC1` (stereo not drawn) [Compound No. 61, 5-[3-[4-(4-fluorophenyl)piperazin-1-yl]propyl]-8-hydroxy-1-phenyl-1,4,5,6,7,8-hexahydropyrrolo[3,2-c]azepin-4-one], the “Anti 5-HT action (% of Control)” value is 37.3 % of Control with serotonin-2 receptor (test drug 10^−6 M) and 74.3 % of Control in the test with serotonin-2 receptor (test drug 10^−7 M). Moreover, the “Anti α1 action (% of Control)” value in the test with α1 receptors (test drug 10^−7 M) is on record as 39.4 % of Control; with α1 receptors (test drug 10^−8 M) it was 96.1 % of Control.

On to `O=C1c2ccn(Cc3ccccc3)c2C(O)CCN1CCCN1CCN(c2ccc(F)cc2)CC1` (stereo not drawn) [Compound No. 62, 1-benzyl-5-[3-[4-(4-fluorophenyl)piperazin-1-yl]propyl]-8-hydroxy-1,4,5,6,7,8-hexahydropyrrolo[3,2-c]azepin-4-one], for which the “Anti 5-HT action (% of Control)” value with serotonin-2 receptor (test drug 10^−6 M) is on record as 11.1 % of Control; in the test on serotonin-2 receptor (test drug 10^−7 M) it was 50.6 % of Control. Also, the results for the “Anti α1 action (% of Control)” value in the test on α1 receptors (test drug 10^−7 M) and in the test with α1 receptors (test drug 10^−8 M) were 31.7 % of Control and 95.0 % of Control, respectively.

Regarding `Cn1ccc2c1C(O)CCN(CCCN1CCC(c3ccccc3)CC1)C2=O` (stereo not drawn) [Compound No. 73, 8-hydroxy-1-methyl-5-[3-(4-phenylpiperidino)propyl]-1,4,5,6,7,8-hexahydropyrrolo-[3,2-c]azepin-4-one], the “Anti 5-HT action (% of Control)” value is 14.9 % of Control with serotonin-2 receptor (test drug 10^−6 M), 54.7 % of Control with serotonin-2 receptor (test drug 10^−7 M) and 90.7 % of Control with serotonin-2 receptor (test drug 10^−8 M). The “Anti α1 action (% of Control)” value is listed as 94.0 % of Control in the test with α1 receptors (test drug 10^−7 M) and 99.3 % of Control in the test with α1 receptors (test drug 10^−8 M).

On to `Cn1ccc2c1C(O)CCN(CCCN1CCC(C(=O)c3ccc(F)cc3)CC1)C2=O` (stereo not drawn) [Compound No. 75, 5-[3-[4-(4-fluorobenzoyl)piperidino]-propyl]-8-hydroxy-1-methyl-1,4,5,6,7,8-hexahydropyrrolo[3,2-c]azepin-4-one], for which the “Anti 5-HT action (% of Control)” value is 25.2 % of Control in the test on serotonin-2 receptor (test drug 10^−6 M) and 71.7 % of Control in the test on serotonin-2 receptor (test drug 10^−7 M). For the same compound, the figures for the “Anti α1 action (% of Control)” value in the test on α1 receptors (test drug 10^−7 M) and in the test on α1 receptors (test drug 10^−8 M) were 70.3 % of Control and 98.3 % of Control, respectively.

Consider `COC1CCN(CCCN2CCN(c3ccc(Cl)cc3)CC2)C(=O)c2ccn(C)c21` (stereo not drawn) [Compound No. 76, 5-[3-[4-(4-chlorophenyl)piperazin-1-yl]propyl]-8-methoxy-1-methyl-1,4,5,6,7,8-hexahydropyrrolo[3,2-c]azepin-4-one], for which the results for the “Anti 5-HT action (% of Control)” value with serotonin-2 receptor (test drug 10^−6 M) and in the test with serotonin-2 receptor (test drug 10^−7 M) were 7.2 % of Control and 35.5 % of Control, respectively. In addition, the figures for the “Anti α1 action (% of Control)” value with α1 receptors (test drug 10^−7 M) and with α1 receptors (test drug 10^−8 M) were 88.1 % of Control and 98.9 % of Control, respectively.

For `Cn1ccc2c1C=CCN(CCCN1CCN(c3ccc(Cl)cc3)CC1)C2=O` [Compound No. 79, 5-[3-[4-(4-chlorophenyl)piperazin-1-yl]propyl]-1-methyl-1,4,5,6-tetrahydropyrrolo[3,2-c]azepin-4-one], the “Anti 5-HT action (% of Control)” value is recorded as 31.8 % of Control in the test with serotonin-2 receptor (test drug 10^−7 M) and 78.3 % of Control with serotonin-2 receptor (test drug 10^−8 M). Further, the “Anti α1 action (% of Control)” value with α1 receptors (test drug 10^−7 M) is given as 58.1 % of Control; in the test on α1 receptors (test drug 10^−8 M) it was 94.8 % of Control.

Turning to `Cn1ccc2c1CCCN(CCCN1CCN(c3ccc(F)cc3)CC1)C2=O` [Compound No. 82, 5-[3-[4-(4-fluorophenyl)piperazin-1-yl]propyl]-1-methyl-1,4,5,6,7,8-hexahydropyrrolo-[3,2-c]azepin-4-one], the “Anti 5-HT action (% of Control)” value in the test on serotonin-2 receptor (test drug 10^−7 M) is reported as 8.4 % of Control; in the test with serotonin-2 receptor (test drug 10^−8 M), 35.2 % of Control. In addition, the “Anti α1 action (% of Control)” value is given as 37.6 % of Control in the test on α1 receptors (test drug 10^−7 M) and 87.6 % of Control in the test with α1 receptors (test drug 10^−8 M).

Take `Cn1ccc2c1[C@H](O)CCN(CCCN1CCN(c3ccc(F)cc3)CC1)C2=O` [Compound No. 84]: the “Anti 5-HT action (% of Control)” value with serotonin-2 receptor (test drug 10^−6 M) is listed as 11.9 % of Control; in the test with serotonin-2 receptor (test drug 10^−7 M) it was 61.9 % of Control; in the test on serotonin-2 receptor (test drug 10^−8 M) it was 82.0 % of Control. Also, the “Anti α1 action (% of Control)” value in the test with α1 receptors (test drug 10^−7 M) is given as 92.4 % of Control; in the test on α1 receptors (test drug 10^−8 M), 100 % of Control.
